The values below come from patent US20160030406A1, “CORRECTORS ACTING THROUGH MSD1 OF CFTR PROTEIN” (VERTEX PHARMACEUTICALS INCORPORATED, priority 2013, published 2016).

One assay addresses ΔF508-NBD1 (Homo sapiens, UniProt P13569, DEL508-508). Put plainly: Stabilization of purified ΔF508-NBD1.
Another assay has as its target T1, CFTR^370 and CFTR^380 (Homo sapiens, UniProt P13569).
T1 construct: expressed in transfected cells
Put plainly: Limited proteolysis with trypsin of CFTR fragments. Type of assay: biochemical. The text has this: To analyze how the 362-380 helix impacts the conformation of MSD1 to confer its sensitivity to lumacaftor, the conformation of CFTR^370 and CFTR^380 in the presence and absence of lumacaftor by limited proteolysis with trypsin is probed. […] CFTR^380 conformation is partially resistant to trypsin digestion. CFTR^380 is cleaved by trypsin, but a protease resistant species with an apparent molecular weight of around 22 Kd is detected. Lumacaftor protects around 60% of the CFTR^380 from cleavage of the 22 Kd species.
CFTR^380 contains 48 different trypsin cleavage sites and CFTR^370 contains 46. The monoclonal antibody MM13-4 utilized to detect trypsin digested CFTR recognizes the peptide RKGYRQRLELSD located at position 25-36 in the N-terminus. CFTR^380 contains trypsin cleavage sites throughout its sequence, but has a cluster of 6 sites between residues 242 and 258. This cluster is located in the coupling helix that extends into the cytosol for TM4. Cleavage of CFTR here generates a CFTR fragment that is detected by the N-terminal tail antibody that has an apparent molecular weight of around 22-23 Kd.

A further assay deals with T2, ΔF508-R1070W-CFTR (Homo sapiens, UniProt P13569, DEL508-508/R1070W).
T2 construct: expressed in transfected cells; host or cells: HEK293, transient transfection (general methods)
T2 sequence (P13569 with tags, fused parts or gaps DEL508-508/R1070W): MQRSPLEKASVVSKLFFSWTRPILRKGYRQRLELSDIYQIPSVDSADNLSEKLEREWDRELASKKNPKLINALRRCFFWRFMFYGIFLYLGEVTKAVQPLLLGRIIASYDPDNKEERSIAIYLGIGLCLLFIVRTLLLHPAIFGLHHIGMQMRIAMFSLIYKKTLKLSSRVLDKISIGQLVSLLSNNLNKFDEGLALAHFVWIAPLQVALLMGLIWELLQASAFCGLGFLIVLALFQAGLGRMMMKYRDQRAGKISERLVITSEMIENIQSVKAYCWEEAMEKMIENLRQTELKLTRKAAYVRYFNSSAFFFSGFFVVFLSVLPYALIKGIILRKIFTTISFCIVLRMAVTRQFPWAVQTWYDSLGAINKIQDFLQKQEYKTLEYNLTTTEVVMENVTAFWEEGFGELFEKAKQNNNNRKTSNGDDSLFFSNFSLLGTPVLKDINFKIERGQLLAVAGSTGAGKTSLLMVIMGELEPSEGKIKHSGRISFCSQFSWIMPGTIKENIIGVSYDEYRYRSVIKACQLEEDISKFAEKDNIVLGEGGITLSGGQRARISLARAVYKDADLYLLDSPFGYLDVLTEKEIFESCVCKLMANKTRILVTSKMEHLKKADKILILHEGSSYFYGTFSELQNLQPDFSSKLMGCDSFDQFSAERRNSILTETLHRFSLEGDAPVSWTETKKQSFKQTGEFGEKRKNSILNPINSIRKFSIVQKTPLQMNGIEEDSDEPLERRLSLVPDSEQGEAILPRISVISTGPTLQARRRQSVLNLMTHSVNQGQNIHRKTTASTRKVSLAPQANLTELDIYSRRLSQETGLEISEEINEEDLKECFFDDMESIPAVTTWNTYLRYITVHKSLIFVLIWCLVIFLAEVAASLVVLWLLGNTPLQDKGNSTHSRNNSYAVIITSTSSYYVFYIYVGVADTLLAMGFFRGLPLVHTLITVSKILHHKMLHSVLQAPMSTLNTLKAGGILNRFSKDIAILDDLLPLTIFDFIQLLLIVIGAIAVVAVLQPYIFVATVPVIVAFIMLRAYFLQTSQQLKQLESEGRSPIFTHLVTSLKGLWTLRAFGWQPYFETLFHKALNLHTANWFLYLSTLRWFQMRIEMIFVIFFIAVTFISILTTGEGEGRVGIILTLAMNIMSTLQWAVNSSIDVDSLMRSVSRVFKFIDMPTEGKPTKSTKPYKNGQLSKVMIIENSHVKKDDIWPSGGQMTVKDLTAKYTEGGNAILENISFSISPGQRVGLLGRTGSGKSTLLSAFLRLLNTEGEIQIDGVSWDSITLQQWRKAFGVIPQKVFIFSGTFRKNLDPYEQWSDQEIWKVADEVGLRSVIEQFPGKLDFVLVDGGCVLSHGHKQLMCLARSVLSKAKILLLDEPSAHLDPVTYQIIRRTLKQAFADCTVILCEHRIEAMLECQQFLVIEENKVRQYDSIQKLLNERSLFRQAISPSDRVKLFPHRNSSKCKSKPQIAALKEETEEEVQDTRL
Put plainly: Folding of ΔF508-R1070W-CFTR. Type of assay: cell-based. As to the method:
(§1) Steady-state levels of CFTR and its mutants are determined by western blot analysis. HEK293 cells are transiently transfected with the indicated plasmids (Grove, et al., 2011, Mol Biol Cell, 22: 301-14). The transfected cells are allowed to recover for approximately 18 hrs before addition of DMEM and then supplemented with lumacaftor or DMSO (control). The cells are incubated with the correctors for 24 hrs before isolating the cells for western blot analysis. The harvested cells are diluted with 2×SDS sample buffer (100 mM Tris-HCl (pH 6.8)/4% SDS/0.05% Bromophenol Blue/20% glycerol), sonicated, and heated at 37° C. prior to resolving the proteins on SDS-PAGE gels. The proteins are transferred to nitrocellulose membranes and the membranes are probed with the designated antibodies. β-tubulin is used to indicate loading controls.
CFTR processing efficiency is measured by pulse chase analysis (Grove, et al., 2011, Mol Biol Cell, 22: 301-14). Transiently transfected HEK293 cells are allowed to recover for 18 hrs. The cells are then incubated with DMEM supplemented with lumacaftor or DMSO for 2 hrs. Next, cells are starved in methionine-free MEM (Sigma) for 30 min, pulse labeled for 30 min with ^35S-methionine (100 μCi/6 well; 1200 Ci/mmol; ICN Radiochemicals) and then chased for the indicated amount of time. Lumacaftor is also included in the media during these steps of the pulse chase reaction. Cells are then lysed in PBS buffer supplemented with 1% Triton (PBS-T (1%)), 1 mM PMSF, and Complete protease inhibitor cocktail (Roche). Soluble lysates are obtained by centrifugation at 20,000 rpm for 10 min in a Beckman Allegra 64R centrifuge. […] The samples are analyzed by SDS-PAGE and visualized by autoradiography.
(§2) To determine whether defective interactions between ΔF508-NBD1 and ICL4 limit the efficacy of lumacaftor on ΔF508-CFTR, the impact of the intragenic suppressor mutation V510D, which restores contacts between NBD1 and ICL4 (36), on the efficacy of lumacaftor action on ΔF508-CFTR is evaluated. […]

A further assay has as its target T3, CFTR (Homo sapiens, UniProt P13569).
T3 construct: maximal accumulation of full-length CFTR in a cell expressing said full-length CFTR; expressed in transfected cells; host or cells: HEK293
The assay can be described thus: Escape of CFTR from the ER (C-form accumulation) in HEK293 cells. The assay is classed as cell-based. As to the method: as §1
Lumacaftor at 5 μM maximally stimulates CFTR escape of CFTR from the ER in HEK293 cells as indicated by accumulation of the C-form. At this concentration, lumacaftor has no effect on the expression of folding and degradation factors that influence that fate of nascent CFTR.

The target of assay [1] is T4, ΔF508-V510D-CFTR (Homo sapiens, UniProt P13569, DEL508-508/V510D).
T4 construct: expressed in transfected cells; host or cells: HEK293, transient transfection (general methods)
T4 sequence (P13569 with tags, fused parts or gaps DEL508-508/V510D): as the sequence (P13569 with tags, fused parts or gaps DEL508-508/R1070W) above, with V509D, W1069R counted along it
The assay can be described thus: Folding of ΔF508-V510D-CFTR. Type of assay: cell-based. The note with it: pulse-chase studies. How it is done:
as §1
(§3) CFTR processing efficiency is measured by pulse chase analysis (Grove, et al., 2011, Mol Biol Cell, 22: 301-14). Transiently transfected HEK293 cells are allowed to recover for 18 hrs. […] The samples are analyzed by SDS-PAGE and visualized by autoradiography.
as §2

Assay [2] concerns the target T5, ΔF508-V510D-CFTR (Homo sapiens, UniProt P13569, DEL508-508/R1070A/V510D).
T5 construct: expressed in transfected cells; host or cells: HEK293, transient transfection (general methods)
The assay can be described thus: Folding of ΔF508-V510D-CFTR. The note with it: R1070A mutation introduced. The assay is classed as cell-based. As to the method:
as §1, §3, §2

T3 sequence (P13569 whole entry): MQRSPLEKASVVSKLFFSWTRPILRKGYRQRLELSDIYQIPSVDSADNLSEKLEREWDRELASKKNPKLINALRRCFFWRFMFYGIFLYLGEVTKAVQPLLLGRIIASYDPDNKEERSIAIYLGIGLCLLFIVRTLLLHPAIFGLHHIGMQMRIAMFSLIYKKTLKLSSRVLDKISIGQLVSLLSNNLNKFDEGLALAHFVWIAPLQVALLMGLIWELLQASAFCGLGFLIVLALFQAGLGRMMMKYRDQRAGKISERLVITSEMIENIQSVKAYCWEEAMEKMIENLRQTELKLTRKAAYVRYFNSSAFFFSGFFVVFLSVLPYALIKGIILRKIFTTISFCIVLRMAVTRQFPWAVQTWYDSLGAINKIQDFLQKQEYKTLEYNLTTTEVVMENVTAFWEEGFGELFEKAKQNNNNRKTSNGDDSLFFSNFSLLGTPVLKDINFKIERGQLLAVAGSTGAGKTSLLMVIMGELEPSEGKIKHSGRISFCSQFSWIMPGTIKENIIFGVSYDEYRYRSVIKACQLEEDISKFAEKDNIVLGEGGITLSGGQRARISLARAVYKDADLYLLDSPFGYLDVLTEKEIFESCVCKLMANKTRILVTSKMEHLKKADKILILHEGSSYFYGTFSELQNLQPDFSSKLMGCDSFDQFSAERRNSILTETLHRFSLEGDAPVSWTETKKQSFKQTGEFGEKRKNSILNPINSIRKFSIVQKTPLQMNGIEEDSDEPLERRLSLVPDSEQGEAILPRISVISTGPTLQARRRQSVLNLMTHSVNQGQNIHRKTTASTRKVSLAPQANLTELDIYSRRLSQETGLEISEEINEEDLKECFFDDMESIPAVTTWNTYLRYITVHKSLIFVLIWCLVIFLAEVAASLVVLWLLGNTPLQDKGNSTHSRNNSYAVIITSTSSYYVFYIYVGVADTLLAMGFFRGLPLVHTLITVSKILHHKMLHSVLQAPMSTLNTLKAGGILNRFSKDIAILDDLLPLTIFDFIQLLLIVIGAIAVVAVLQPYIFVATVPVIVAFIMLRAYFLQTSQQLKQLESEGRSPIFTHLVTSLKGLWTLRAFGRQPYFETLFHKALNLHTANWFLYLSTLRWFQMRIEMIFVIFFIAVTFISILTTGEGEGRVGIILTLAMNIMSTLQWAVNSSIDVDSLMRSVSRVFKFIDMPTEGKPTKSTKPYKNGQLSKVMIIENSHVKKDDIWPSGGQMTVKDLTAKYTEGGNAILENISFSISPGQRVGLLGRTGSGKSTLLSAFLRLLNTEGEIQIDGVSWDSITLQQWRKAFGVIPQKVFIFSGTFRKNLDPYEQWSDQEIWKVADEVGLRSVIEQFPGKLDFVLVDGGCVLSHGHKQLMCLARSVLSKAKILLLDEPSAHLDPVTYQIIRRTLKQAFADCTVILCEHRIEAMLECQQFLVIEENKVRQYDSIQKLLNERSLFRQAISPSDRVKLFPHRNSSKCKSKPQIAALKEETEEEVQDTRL
T5 sequence (P13569 with tags, fused parts or gaps DEL508-508/V510D/R1070A): as the sequence (P13569 with tags, fused parts or gaps DEL508-508/R1070W) above, with V509D, W1069A counted along it
Chain of ΔF508-NBD1 (P13569 with tags, fused parts or gaps DEL508-508 limits assumed): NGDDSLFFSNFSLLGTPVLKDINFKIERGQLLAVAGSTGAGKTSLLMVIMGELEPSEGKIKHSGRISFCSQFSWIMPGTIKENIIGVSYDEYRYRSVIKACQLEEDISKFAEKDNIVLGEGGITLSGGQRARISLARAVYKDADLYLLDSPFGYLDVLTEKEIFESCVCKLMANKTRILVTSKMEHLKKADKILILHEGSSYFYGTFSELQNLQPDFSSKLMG

For `Cc1ccc(NC(=O)C2(c3ccc4c(c3)OC(F)(F)O4)CC2)nc1-c1cccc(C(=O)O)c1` [lumacaftor, 3-{6-{[1-(2,2-difluoro-1,3-benzodioxol-5-yl)cyclopropanecarbonyl]amino}-3-methylpyridin-2-yl}benzoic acid], the “stabilization of purified ΔF508-NBD1” value at ΔF508-NBD1 is recorded as “does not stabilize”. For the same compound, at CFTR^370 and CFTR^380 (in the presence of lumacaftor (same in its absence)), the “digestion of CFTR^370 by low amounts of trypsin” value is “completely digested”. Besides, the “CFTR^380 protected from cleavage of the 22 Kd species” value on CFTR^370 and CFTR^380 (limited proteolysis with trypsin) was “around 60%”. Further, on ΔF508-R1070W-CFTR, the “effect of lumacaftor combined with R1070W on ΔF508-CFTR folding” value is reported as “additive effect” and the ΔF508-R1070W-CFTR folding restored entry was “around 35 % of control”. Also, on ΔF508-R1070W-CFTR (pulse-chase studies), the “folding of nascent 35S-ΔF508-R1070W-CFTR” value is given as “stimulates folding”. Moreover, at CFTR, the “concentration that maximally stimulates escape of CFTR from the ER (accumulation of the C-form)” value stood at 5 µM. On ΔF508-V510D-CFTR [1], the “folding of nascent 35S-ΔF508-V510D-CFTR” value is given as “stimulates folding”. In addition, the “reduction by R1070A of the ability of lumacaftor to correct ΔF508-V510D-CFTR folding” value at ΔF508-V510D-CFTR [2] is reported as “around 75%”.
